Laboratory results as given in patent US20250066287A1, “PHASE CHANGE AROMATIC AZO COMPOUNDS, METHOD OF MANUFACTURE, AND USE AS HOMOGENOUS CATALYST” (priority 2023, published 2025).
“And” between values parts separate entries of the source, which are not always exact repeats. Identical values can stand only once. Like-named read-outs stand apart in the source and are kept apart here.

Legend:
[1] = Absorption coefficient of reactants, products and catalysts (UV-Vis); assay type: physicochemical
Method: Ultraviolet-visible (UV-Vis) absorption spectra were obtained with a Cary 50 Bio UV-Vis spectrophotometer in a UV Quartz cuvette with a path length of 10 mm. Compounds were dissolved in solvents at a concentration of 0.0125 mg/ml unless otherwise specified. The UV-Vis absorption was first recorded in dark for 5 min, then samples were irradiated with a specified wavelength until no change in their absorbance was observed. Samples were irradiated with Thorlabs LEDs: M340L4 (340 nm, 2.22 μW/mm^2, 60 mW), M430L4 (430 nm, 35.3 μW/mm^2, 600 mW). […]

[2] = Photoswitching between E and Z (UV-vis, photostationary state); assay type: physicochemical; details: dilute solution; compound 1 in acetonitrile, compound 2 in methanol
Method: To find solvents in which the ratio between the maximum concentrations of Z and E isomers at the respective photostationary state (PSS) (i.e., r=[Z]max/[E]max) is the greatest, a solvent screening test for each compound was performed (FIGS. 21-24).
Ultraviolet-visible (UV-Vis) absorption spectra were obtained with a Cary 50 Bio UV-Vis spectrophotometer in a UV Quartz cuvette with a path length of 10 mm. Compounds were dissolved in solvents at a concentration of 0.0125 mg/ml unless otherwise specified. The UV-Vis absorption was first recorded in dark for 5 min, then samples were irradiated with a specified wavelength until no change in their absorbance was observed. Samples were irradiated with Thorlabs LEDs: M340L4 (340 nm, 2.22 μW/mm^2, 60 mW), M430L4 (430 nm, 35.3 μW/mm^2, 600 mW).

[3] = Thermal reversion kinetics measurements (Z-to-E); assay type: physicochemical; details: 1 in MeCN, 2 in MeOH; for τ1/2 (thermal half-life of Z isomer): Z-to-E thermal reversion at 298 K (room temperature); for ΔG^‡ / ΔH^‡ / ΔS‡: thermal isomerization of Z isomers at 298 K
Method: Thermal reversion kinetics measurements. The thermal half-life of compounds 1 and 2 were determined by following a reported procedure (G. D. Han, et all., J. Mater. Chem. A 2016, 4, 16157-16165). A solution of compounds 1 or 2 (˜1.7×10^−5 M) were prepared in MeCN and MeOH, respectively, then irradiated at 340 nm to obtain a Z-rich solution at photostationary state (PSS), which was then heated at three different elevated temperatures (compound 1: 333 K, 338 K, 343 K; compound 2: 318 K, 323 K, 328 K) in dark.

[4] = Kinetic tests of Henry reaction; details: for product yield: pre-activated Z, 24 hours; for rate constant kZ: pre-activated soluble Z
[5] = pristine azobenzene; cited from earlier work
[6] = Solvent screening for reversible solubility changes; details: 0.5 mg in 1 mL; irradiation of 340 nm and 430 nm
Method: To determine solubility, 0.5 mg of compounds were added to 1 mL of common solvents (1-MeOH, 2-acetonitrile (MeCN), 3-acetone, 4-THF, 5-hexane, 6-EtOAc, 7-DMF, 8-DMSO, and 9-toluene, respectively). […] The samples with suspensions were then stirred overnight under 340 nm irradiation. […] These samples were then stirred for 4 hours under 430 nm to trigger the precipitation of the compounds.

[7] = Light-induced precipitation of catalysts from pristine solvent; assay type: physicochemical; details: within 10 min of 430 nm irradiation; 1 in acetonitrile, 2 in methanol
Method: FIG. 6 and FIG. 25 illustrate the efficiencies of 430 nm induced catalyst precipitation and recovery for compounds 1 and 2, which were obtained by weighing the filtered precipitates after irradiation. […] The full recovery of the catalysts is limited by the PSS ratios of compounds at 430 nm (82% for 1- E and 84% for 2-E).
Light-induced precipitation of catalysts. To determine light-induced precipitation of catalysts, 44 mg of compound 1 and 34 mg of compound 2 were added to 2 mL of acetonitrile and methanol, respectively. The suspensions were irradiated at 340 nm overnight to obtain clear Z solutions. Then, the solutions were irradiated at 430 nm and monitored over 10 min.

[8] = Michael addition in acetonitrile; in 10 hours
Method: For compound 1: To a solution of trans-β-nitrostyrene (11.1 mg, 7.5 μmol) and acetylacetone (7.6 mg, 7.5 μmol) in MeCN (0.25 mL) was added either insoluble E isomer or pre-activated Z isomer of compound 1 (5.4 mg, 0.75 μmol). Three identical samples were prepared. 0.2 mL of the solution was taken to check the product yield via ^1H NMR at each time point.

[9] = Cycling tests of Michael addition reaction; details: Michael addition in acetonitrile; after the subsequent two reactions with recovered catalyst, 10 mol % loading
[10] = Cycling tests of Henry reaction; details: acetonitrile
[11] = Quantification of solubility of E and Z isomers in select solvents; details: for Isomer (% E): saturated solution after 340 nm irradiation
Method: Quantification of solubility. […] The mixtures were sonicated for 5 min. The obtained suspensions were filtered with a PTFE filter to remove the excess solids. The solvents in clear filtrates were removed using a rotary evaporator and the solutes were dried under vacuum overnight.
wherein [Z]max and [E]max are the maximum concentration of the Z-isomer and the E-isomer, respectively.

[12] = Henry reaction, 1 in acetonitrile, 2 in methanol
[13] = MeCN, Z-rich after 340 nm irradiation overnight
[14] = Toluene, Z-rich after 340 nm irradiation overnight
[15] = MeOH, Z-rich after 340 nm irradiation overnight
[16] = EtOAc, Z-rich after 340 nm irradiation overnight

SMILES: CC(=O)CC(C)=O [Acetylacetone, acetylacetone]
- ε340 nm ([1]; MeCN): 2.4 M⁻¹ cm⁻¹
- ε340 nm ([1]; MeOH): 31.1 M⁻¹ cm⁻¹

SMILES: CN(CCCNC(=O)c1ccc(C(=O)NCCCN(C)CCc2ccc(/N=N/c3ccccc3)cc2)cc1)CCc1ccc(/N=N/c2ccccc2)cc1 [Compound 1-E]
- % E after irradiation at 430 nm (PSS) [2]: 82 % E
- ε340 nm ([1]; MeCN): 24004 M⁻¹ cm⁻¹ and 24004.3 M⁻¹ cm⁻¹
- ε430 nm ([1]; MeCN): 2336.5 M⁻¹ cm⁻¹

SMILES: O=Cc1ccc([N+](=O)[O-])cc1 [Nitrobenzaldehyde, 4-nitrobenzaldehyde]
- ε340 nm ([1]; MeCN): 323.3 M⁻¹ cm⁻¹
- ε340 nm ([1]; MeCN, listed as 4-nitrobenzaldehyde): 323 M⁻¹ cm⁻¹
- ε340 nm ([1]; MeOH): 312.5 M⁻¹ cm⁻¹

SMILES: CN(CCCNC(=O)c1ccc(C(=O)NCCCN(C)CCc2ccc(/N=N\c3ccccc3)cc2)cc1)CCc1ccc(/N=N\c2ccccc2)cc1 [Compound 1-Z]
- τ1/2 (thermal half-life of Z isomer) [3]: 199 h
- product yield [4, 12]: about 70%
- rate constant kZ [4, 12]: 1.37e-05 s⁻¹
- ε340 nm ([1]; MeCN): 6780.1 M⁻¹ cm⁻¹
- ε430 nm ([1]; MeCN): 2857.4 M⁻¹ cm⁻¹

SMILES: O=[N+]([O-])/C=C/c1ccccc1 [Nitrostyrene, trans-β-nitrostyrene]
- ε340 nm ([1]; MeCN): 11327.3 M⁻¹ cm⁻¹
- ε340 nm ([1]; MeCN, listed as trans-β-nitrostyrene): 11327 M⁻¹ cm⁻¹
- ε340 nm ([1]; MeOH): 15390.7 M⁻¹ cm⁻¹

SMILES: CN(CCCNC(=O)c1ccc(-c2ccc(C(=O)NCCCN(C)CCc3ccc(/N=N/c4ccccc4)cc3)cc2)cc1)CCc1ccc(/N=N/c2ccccc2)cc1 [Compound 2-E]
- % E after irradiation at 430 nm (PSS) [2]: 84 % E
- ε340 nm ([1]; MeOH): 25623 M⁻¹ cm⁻¹ and 25623.3 M⁻¹ cm⁻¹
- ε430 nm ([1]; MeOH): 2375.3 M⁻¹ cm⁻¹

SMILES: c1ccc(N=Nc2ccccc2)cc1 [azobenzene]
- % E at 430 nm (photoswitching property) [5]: 83 % E

SMILES: CN(CCCNC(=O)c1ccc(C(=O)NCCCN(C)CCc2ccc(N=Nc3ccccc3)cc2)cc1)CCc1ccc(N=Nc2ccccc2)cc1 [Compound 1]
- ideal solvent candidates for reversible solubility changes [6]: MeCN and toluene
- % E after irradiation at 430 nm (PSS) [2]: 82 % E
- % Z after irradiation at 340 nm (PSS) [2]: ~88 % Z
- % Z drop in the suspension [7]: 75%
- τ1/2 (thermal half-life of Z isomer) [3]: 199 h
- ΔG^‡ [3]: 25.67 kcal/mol
- ΔH^‡ [3]: 23.97 kcal/mol
- ΔS‡ [3]: −23.8 J mol^−1K^−1
- product yield of Z-rich catalyst compared to its E counterpart [8]: 2.4 fold
- product yield [9]: 82%
- % Z by in-situ UV-induced E→Z isomerization in the reaction medium ([4]; Henry reaction mixture in acetonitrile, after 24-hour 340 nm irradiation): 48 % Z
- rate constant kE-UV ([4]; Henry reaction, in-situ UV (340 nm) activated catalyst, 1 in acetonitrile, 2 in methanol): 4.24e-06 s⁻¹
- yield of product ([10]; 1st Henry reaction (16 hours)): 56%
- yield of product ([10]; 2nd Henry reaction (16 hours)): 57%
- yield of product ([10]; third Henry reaction (24 hours)): 70%
- r=[Z]max/[E]max ([11]; MeCN (acetonitrile)): 10.4 and 10.3
- Solubility ([11]; MeCN, E isomer (100% E)): 2.1 g/L and 2.9 mM
- Solubility [11, 13]: 22 g/L and 30 mM
- Isomer (% E) ([11]; MeCN): 12 % E
- r=[Z]max/[E]max ([11]; Toluene): 2.8
- Solubility ([11]; Toluene, E isomer (100% E)): 5.4 g/L and 7.5 mM
- Solubility [11, 14]: 15 g/L and 21 mM
- Isomer (% E) ([11]; Toluene): 17 % E

SMILES: CN(CCCNC(=O)c1ccc2cc(C(=O)NCCCN(C)CCc3ccc(N=Nc4ccccc4)cc3)ccc2c1)CCc1ccc(N=Nc2ccccc2)cc1 [Compound 3]
- ideal solvent candidates for reversible solubility changes [6]: MeOH and acetone
- r=[Z]max/[E]max ([11]; Acetone): 5.7
- Solubility ([11]; Acetone, E isomer (100% E)): 3.8 g/L and 4.9 mM
- Isomer (% E) ([11]; Acetone): 14 % E
- r=[Z]max/[E]max ([11]; MeOH (methanol)): 4.0
- Solubility ([11]; MeOH, E isomer (100% E)): 3.9 g/L and 5.0 mM
- Solubility [11, 15]: 16 g/L and 20 mM
- Isomer (% E) ([11]; MeOH): 27 % E

SMILES: CN(CCCNC(=O)CCCC#CC#CCCCC(=O)NCCCN(C)CCc1ccc(N=Nc2ccccc2)cc1)CCc1ccc(N=Nc2ccccc2)cc1 [Compound 4]
- ideal solvent candidates for reversible solubility changes [6]: no solvent is ideal
- r=[Z]max/[E]max ([11]; EtOAc): 9.4
- Solubility ([11]; EtOAc, E isomer (100% E)): 2.6 g/L and 3.3 mM
- Solubility [11, 16]: 24 g/L and 31 mM
- Isomer (% E) ([11]; EtOAc): 23 % E
- r=[Z]max/[E]max ([11]; MeCN (acetonitrile)): 10.0
- Solubility ([11]; MeCN, E isomer (100% E)): 3.3 g/L and 4.3 mM
- Solubility [11, 13]: 33 g/L and 43 mM
- Isomer (% E) ([11]; MeCN): 9 % E
- r=[Z]max/[E]max ([11]; Toluene): 13.9
- Solubility ([11]; Toluene, E isomer (100% E)): 2.6 g/L and 3.3 mM
- Solubility [11, 14]: 36 g/L and 46 mM
- Isomer (% E) ([11]; Toluene): 55 % E

SMILES: CC[N+](=O)[O-] [Nitroethane, nitroethane]
- ε340 nm ([1]; MeCN): 0.3 M⁻¹ cm⁻¹
- ε340 nm ([1]; MeOH): 1.3 M⁻¹ cm⁻¹

SMILES: CN(CCCNC(=O)c1ccc(-c2ccc(C(=O)NCCCN(C)CCc3ccc(N=Nc4ccccc4)cc3)cc2)cc1)CCc1ccc(N=Nc2ccccc2)cc1 [Compound 2]
- ideal solvent candidates for reversible solubility changes [6]: MeOH and EtOAc
- % E after irradiation at 430 nm (PSS) [2]: 84 % E
- % Z after irradiation at 340 nm (PSS) [2]: 84 % Z
- % Z drop in the suspension [7]: 75%
- τ1/2 (thermal half-life of Z isomer) [3]: 84 h
- ΔG^‡ [3]: 25.14 kcal/mol
- ΔH^‡ [3]: 18 kcal/mol
- ΔS‡ [3]: −99.7 J mol^−1K^−1
- rate constant kE-UV [4]: 1.16×10 ^−5 s^−1
- r=[Z]max/[E]max ([11]; EtOAc): 6.0
- Solubility ([11]; EtOAc, E isomer (100% E)): 2.4 g/L and 3.0 mM
- Solubility [11, 16]: 14 g/L and 18 mM
- Isomer (% E) ([11]; EtOAc): 14 % E
- r=[Z]max/[E]max ([11]; MeOH (methanol)): 8.8
- Solubility ([11]; MeOH, E isomer (100% E)): 1.9 g/L and 2.4 mM
- Solubility [11, 15]: 17 g/L and 21 mM
- Isomer (% E) ([11]; MeOH): 16 % E

SMILES: CN(CCCNC(=O)c1ccc(-c2ccc(C(=O)NCCCN(C)CCc3ccc(/N=N\c4ccccc4)cc3)cc2)cc1)CCc1ccc(/N=N\c2ccccc2)cc1 [Compound 2-Z]
- τ1/2 (thermal half-life of Z isomer) [3]: 84 h
- product yield [4, 12]: 85%
- rate constant kZ [4, 12]: 2.6e-05 s⁻¹
- ε340 nm ([1]; MeOH): 2937.1 M⁻¹ cm⁻¹
- ε430 nm ([1]; MeOH): 3632.2 M⁻¹ cm⁻¹
